In patent publication US20230357179A1, “RAF KINASE INHIBITORS AND METHODS OF USE THEREOF” (Deciphera Pharmaceuticals, LLC, priority 2021, published 2023):

Assays:
A-Raf kinase = target: T1, A-Raf kinase (Homo sapiens, UniProt P10398, Y301D/Y302D); test: Biochemical assay for A-Raf.1 (coupled pyruvate kinase/lactate dehydrogenase); settings: read-out: ARAF.1 IC50
T1 construct: purchased Sigma
Protocol: Biochemical assay for A-Raf.1
(§1) Activity of A-Raf kinase (SEQ. ID NO. 1) was determined spectroscopically using a coupled pyruvate kinase/lactate dehydrogenase assay that continuously monitors the ATP hydrolysis-dependent oxidation of NADH (e.g., Schindler et al., Science, 2000, 289, 1938-1942). Assays were conducted in 384-well plates (100 μL final volume) using 5.55 nM A-Raf (Sigma), 1.5 units pyruvate kinase, 2.1 units lactate dehydrogenase, 1 mM phosphoenol pyruvate, 0.28 mM NADH, 30.1 nM MEK (SignalChem), and 1 mM ATP in assay buffer (100 mM Tris, pH 7.5, 15 mM MgCl2, 0.5 mM DTT, 0.1% octyl-glucoside, 0.002% (w/v) BSA, and 0.002% Triton X-100). Inhibition of A-Raf was measured by adding serial diluted test compound (final assay concentration of 1% DMSO). A decrease in absorption at 340 nm was monitored continuously for 6 h at 30° C. on a multi-mode microplate reader (BioTek). The reaction rate was calculated using the 4 to 5 h time frame. The reaction rate at each concentration of compound was converted to percent inhibition using controls (i.e., reaction with no test compound and reaction with a known inhibitor) and IC50 values were calculated by fitting a four-parameter sigmoidal curve to the data using Prism (GraphPad software).

B-Raf kinase = target: T2, B-Raf kinase (Homo sapiens, UniProt P15056); test: Biochemical assay for B-Raf.1 (coupled pyruvate kinase/lactate dehydrogenase); settings: read-out: BRAF.1 IC50
T2 construct: GST (N); purchased Sigma
Protocol: Biochemical Assay for B-Raf.1
as §1, with “B-Raf” for “A-Raf”, “NO: 2)” for “NO. 1)”, “0.13” for “5.55”

C-Raf kinase = target: T3, C-Raf kinase (Homo sapiens, UniProt P04049, Y340D/Y341D); test: Biochemical assay for C-Raf.1 (coupled pyruvate kinase/lactate dehydrogenase); settings: read-out: CRAF.1 IC50
T3 construct: Y340D,; GST (N); purchased Sigma
Protocol: Biochemical Assay for C-Raf.1
as §1, with “C-Raf” for “A-Raf”, “NO: 3)” for “NO. 1)”, “0.43” for “5.55”

B-Raf (V600E) kinase = target: T4, B-Raf (V600E) kinase (Homo sapiens, UniProt P15056, V600E); test: Biochemical assay for B-Raf (V600E).1 (coupled pyruvate kinase/lactate dehydrogenase); settings: read-out: BRAF V600E.1 IC50
T4 construct: B-Raf (V600E) residues 416-766 with a; GST (N); purchased SignalChem
Protocol: Biochemical Assay for B-Raf (V600E).1
Activity of B-Raf (V600E) (SEQ. ID NO: 4) kinase was determined spectroscopically using a coupled pyruvate kinase/lactate dehydrogenase assay that continuously monitors the ATP hydrolysis-dependent oxidation of NADH (e.g., Schindler et al., Science, 2000, 289, 1938-1942). Assays were conducted in 384-well plates (100 μL final volume) using 0.03 nM B-Raf (SignalChem), 1.5 units pyruvate kinase, 2.1 units lactate dehydrogenase, 1 mM phosphoenol pyruvate, 0.28 mM NADH, 30.1 nM MEK (SignalChem), and 1 mM ATP in assay buffer (100 mM Tris, pH 7.5, 15 mM MgCl2, 0.5 mM DTT, 0.1% octyl-glucoside, 0.002% (w/v) BSA, and 0.002% Triton X-100). Inhibition of B-Raf (V600E) was measured by adding serial diluted test compound (final assay concentration of 1% DMSO). A decrease in absorption at 340 nm was monitored continuously for 6 h at 30° C. on a multi-mode microplate reader (BioTek). The reaction rate was calculated using the 3 to 4 h time frame. The reaction rate at each concentration of compound was converted to percent inhibition using controls (i.e., reaction with no test compound and reaction with a known inhibitor) and IC50 values were calculated by fitting a four-parameter sigmoidal curve to the data using Prism (GraphPad software).

A375 cells = test: A375 cell proliferation assay (1), resazurin, 96-well; type: cell-based; settings: Homo sapiens, A-375, inhibition of cell proliferation
Protocol: A375 Cell Proliferation Assay (1)
A375 cells (catalog (#CRL-1619) are obtained from the American Type Culture Collect (ATTC, Manassas, VA). Briefly, cells were grown in DMEM High Glucose supplemented with 10% characterized fetal bovine serum (Invitrogen, Carlsbad, CA) and 1% Penicillin/Streptomycin/L-Glutamine at 37° C., 5% CO2, and 95% humidity. Cells are expanded until reaching 70-95% confluency at which point they are sub-cultured or harvested for assay use. A serial dilution of test compound is dispensed into a 96-well black clear bottom plate in triplicate. Two thousand five hundred cells are added per well in 200 μL complete growth medium in the 96-well plate. Plates are incubated for 67-72 hours at 37° C., 5% CO2, and 95% humidity. At the end of the incubation, 40 μL of a 440 μM solution of resazurin (Sigma, St. Louis, MO) in PBS is added to each well of the plate and plates are incubated for an additional 5-6 hours at 37° C., 5% CO2, and 95% humidity. Plates are read on a Synergy2 or equivalent reader (Biotek, Winooski VT) using an excitation of 540 nm and an emission of 600 nm. Data is analyzed using Prism software (GraphPad, San Diego, CA) to calculate IC50 values.

T2 sequence (P15056 416-766): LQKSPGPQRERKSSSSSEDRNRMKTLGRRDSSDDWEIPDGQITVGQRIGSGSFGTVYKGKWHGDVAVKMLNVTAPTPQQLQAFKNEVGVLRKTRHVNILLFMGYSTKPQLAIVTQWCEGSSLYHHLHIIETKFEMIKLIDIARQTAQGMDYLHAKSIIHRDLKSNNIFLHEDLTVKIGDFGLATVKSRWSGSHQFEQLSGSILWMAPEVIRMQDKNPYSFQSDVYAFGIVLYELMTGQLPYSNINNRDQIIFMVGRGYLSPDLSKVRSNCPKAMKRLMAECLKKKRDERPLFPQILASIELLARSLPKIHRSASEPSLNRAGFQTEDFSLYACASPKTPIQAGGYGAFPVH
T4 sequence (P15056 416-766 V600E): as the sequence (P15056 416-766) above, with V185E counted along it
T1 sequence (P10398 with tags, fused parts or gaps Y301D/Y302D): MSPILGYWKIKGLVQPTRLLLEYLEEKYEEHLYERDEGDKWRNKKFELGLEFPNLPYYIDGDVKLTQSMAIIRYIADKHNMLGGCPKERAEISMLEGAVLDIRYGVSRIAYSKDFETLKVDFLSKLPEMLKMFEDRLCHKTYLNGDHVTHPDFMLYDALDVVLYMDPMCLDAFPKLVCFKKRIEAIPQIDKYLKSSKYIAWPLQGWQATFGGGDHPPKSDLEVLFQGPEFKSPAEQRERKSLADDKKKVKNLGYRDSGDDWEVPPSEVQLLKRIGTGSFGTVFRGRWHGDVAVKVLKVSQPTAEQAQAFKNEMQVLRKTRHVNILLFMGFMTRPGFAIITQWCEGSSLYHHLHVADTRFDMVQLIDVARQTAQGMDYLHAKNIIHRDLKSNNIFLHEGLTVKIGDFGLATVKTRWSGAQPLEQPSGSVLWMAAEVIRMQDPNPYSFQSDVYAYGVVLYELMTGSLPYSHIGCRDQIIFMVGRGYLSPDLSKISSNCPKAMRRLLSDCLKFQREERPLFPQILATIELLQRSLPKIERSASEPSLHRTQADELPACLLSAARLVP
T3 sequence (P04049 307-648 Y340D/Y341D): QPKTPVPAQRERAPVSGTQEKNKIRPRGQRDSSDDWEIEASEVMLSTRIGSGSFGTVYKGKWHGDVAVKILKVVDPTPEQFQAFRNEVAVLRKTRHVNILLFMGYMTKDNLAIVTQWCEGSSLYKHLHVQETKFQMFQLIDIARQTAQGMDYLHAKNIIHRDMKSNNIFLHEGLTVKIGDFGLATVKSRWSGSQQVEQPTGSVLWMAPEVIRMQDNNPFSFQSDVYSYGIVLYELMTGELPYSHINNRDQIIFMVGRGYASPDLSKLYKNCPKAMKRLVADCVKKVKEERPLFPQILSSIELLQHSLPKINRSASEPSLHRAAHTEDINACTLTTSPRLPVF

Row | Structure (SMILES) | IC50 (A-Raf kinase) [nM] | IC50 (B-Raf kinase) [nM] | IC50 (C-Raf kinase) [nM] | IC50 (B-Raf (V600E) kinase) [nM] | IC50 (A375 cells) [nM]
1 | Cc1ccc(NC(=O)NCCC(C)(C)C)cc1-c1cc(N2CCOCC2)nc(N2CC(C)(O)C2)n1 [Example 1, 1-(3,3-dimethylbutyl)-3-(3-(2-(3-hydroxy-3-methylazetidin-1-yl)-6-morpholinopyrimidin-4-yl)-4-methylphenyl)urea] | > 1000 | ≤ 100 | ≤ 100 | ≤ 100 | ≤ 100
2 | CC(=O)Nc1cc(-c2cc(-c3cc(NC(=O)NCCC4(C)CC4)c(F)cc3C)ccn2)ccn1 [Example 2, N-(4-(4-fluoro-2-methyl-5-(3-(2-(1-methylcyclopropyl)ethyl)ureido)phenyl)-[2,4′-bipyridin]-2′-yl)acetamide] | > 1000 | 500 to 1000 | 100 to 500 | ≤ 100 | 1000 to 10000
3 | Cc1ncc(NC(=O)NCCC(C)(C)C)cc1-c1cc(N2CCOCC2)c(=O)n(C)c1 [Example 8] | > 1000 | > 1000 | 500 to 1000 | ≤ 100 | –
4 | Cc1cc(F)c(NC(=O)NCCC2(C(F)(F)F)CC2)cc1-c1cc(C2CCOCC2)nc(N2CCN(C)CC2)c1 [Example 12] | > 1000 | 500 to 1000 | 100 to 500 | ≤ 100 | –
5 | Cc1ccc(NC(=O)NC23CC4CC(CC(C4)C2)C3)cc1-c1cc(OCCO)nc(N2CCOCC2)c1 [Example 14] | > 1000 | > 1000 | 100 to 500 | ≤ 100 | –
6 | Cc1ncc(NC(=O)NCCC(C)(C)C)cc1-c1ccnc(N2CCOCC2)c1 [Example 16] | > 1000 | 500 to 1000 | 100 to 500 | ≤ 100 | –
7 | Cc1ncc(NC(=O)NCCC(C)(C)C)cc1-c1cc(N2CCOCC2)c(=O)n(C)n1 [Example 17] | > 1000 | > 1000 | > 1000 | ≤ 100 | –
8 | COC1(CCNC(=O)Nc2cc(-c3cc(-c4cnn(C)c4)nc(N4CCOCC4)c3)c(C)cc2F)CC1 [Example 35] | > 1000 | 100 to 500 | 100 to 500 | ≤ 100 | –
9 | COC(C)(C)CCNC(=O)Nc1ccc(C)c(-c2cc(-c3cnn(C4CCNCC4)c3)nc(N3CCOCC3)c2)c1 [Example 46] | > 1000 | 100 to 500 | 100 to 500 | ≤ 100 | –
10 | CC(=O)Nc1cc(-c2cc(-c3cc(NC(=O)NCCCC(F)(F)F)c(F)cc3C)cc(C3CC3)n2)ccn1 [Example 58] | 500 to 1000 | ≤ 100 | ≤ 100 | ≤ 100 | –
11 | COC(C)(C)CCNC(=O)Nc1cc(-c2cccc(-c3ccnc(N)c3)c2)c(C)cc1F [Example 70] | > 1000 | 100 to 500 | 100 to 500 | ≤ 100 | –

Further lines, results first:

Row | IC50 (A-Raf kinase) [nM] | IC50 (B-Raf kinase) [nM] | IC50 (C-Raf kinase) [nM] | IC50 (B-Raf (V600E) kinase) [nM] | IC50 (A375 cells) [nM] | Structure (SMILES)
12 | > 1000 | > 1000 | > 1000 | 100 to 500 | – | Cc1ncc(NC(=O)N2CCOCC2)cc1-c1cccc(-c2cc(NC(=O)C3CC3)ncn2)c1 [Example 74]
13 | > 1000 | > 1000 | > 1000 | 100 to 500 | – | Cc1cc(F)c(NC(=O)N[C@H]2C[C@H](N(C)C)C2)cc1-c1cc(OCCO)nc(-c2ccnc3[nH]ncc23)c1 [Example 86]
14 | > 1000 | > 1000 | > 1000 | > 1000 | – | CNC(=O)c1cc(-c2cnnc(-c3cc(NC(=O)N4CC[C@H](OC)C4)cnc3C)c2)ccn1 [Example 189]
15 | > 1000 | > 1000 | > 1000 | > 1000 | – | COC(=O)Nc1cc(-c2cnnc(-c3cccc(NC(=O)N4CC[C@H](OC)C4)c3)c2)ccn1 [Example 190]
16 | > 1000 | > 1000 | > 1000 | > 1000 | – | COC(=O)Nc1cc(-c2cnnc(-c3cc(NC(=O)N4CCC(C)(C)C4)cnc3C)c2)ccn1 [Example 191]
17 | > 1000 | > 1000 | 500 to 1000 | > 1000 | – | CNC(=O)c1cc(-c2cnnc(-c3cc(NC(=O)N4CCC(CC(F)(F)F)C4)cnc3C)c2)ccn1 (stereo not drawn) [Example 192]
18 | > 1000 | 500 to 1000 | 100 to 500 | > 1000 | – | COC(=O)Nc1cc(-c2cc(-c3cc(NC(=O)N4CCC(C)(C)C4)cnc3C)ccn2)ccn1 [Example 198]
19 | > 1000 | > 1000 | > 1000 | > 1000 | – | COC(=O)Nc1cc(-c2cnnc(-c3cccc(NC(=O)N4CC[C@@H](OC)C4)c3)c2)ccn1 [Example 199]
20 | > 1000 | > 1000 | > 1000 | > 1000 | – | COC(=O)Nc1cc(-c2cnnc(-c3cc(NC(=O)N4CC[C@@H](OC)C4)cnc3C)c2)ccn1 [Example 203]
21 | > 1000 | > 1000 | > 1000 | > 1000 | – | CNC(=O)c1cc(-c2cnnc(-c3cc(NC(=O)N4CC[C@@H](OC)C4)cnc3C)c2)ccn1 [Example 204]
22 | > 1000 | > 1000 | 500 to 1000 | > 1000 | – | COC(=O)Nc1cc(-c2cc(-c3cc(NC(=O)N4CCC(C(C)(C)O)C4)cnc3C)ccn2)ccn1 (stereo not drawn) [Example 212]
